# Reference: paper PMC12373846, “Hemoglobin as a pseudoperoxidase and drug target for oxidative stress-related diseases” (Signal Transduction and Targeted Therapy, 2025)
# Key:
# 97 kinases = test: KINOMEscan scanEDGE selectivity score; format: binding, human; details: 10000 nM
# Protocol: (§1) The possibility of KDS12025 on kinase off-target, the KINOMEscan panel of scanEDGE assay was conducted in DiscoverX (CA, USA) using a site-directed competition binding with the test compounds. The assay results are given in Supplementary Table 4 and experimental information is available on the DiscoverX web page (www.discoverx.com). Moreover, the Delta SafetyScreen87 panel assay was conducted in Eurofins Discovery (Cerep, France). The assay results are given in Supplementary Table 5 and experimental information is available on the DiscoverX web page (https://www.eurofinsdiscoveryservices.com).
# purified human Hb = target: T1, purified human Hb (Homo sapiens, UniProt P68871); test: ITC binding affinity assay; details: Hb+KDS12025, without H2O2
# T1 construct: purchased MP Biomedical 55914
# T1 sequence (P68871 2-147 limits assumed): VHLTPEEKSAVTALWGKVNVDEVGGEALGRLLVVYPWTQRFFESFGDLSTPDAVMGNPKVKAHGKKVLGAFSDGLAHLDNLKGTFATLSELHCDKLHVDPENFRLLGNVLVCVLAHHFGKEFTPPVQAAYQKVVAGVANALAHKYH
# T1 sequence (P69905 2-142 partner limits assumed): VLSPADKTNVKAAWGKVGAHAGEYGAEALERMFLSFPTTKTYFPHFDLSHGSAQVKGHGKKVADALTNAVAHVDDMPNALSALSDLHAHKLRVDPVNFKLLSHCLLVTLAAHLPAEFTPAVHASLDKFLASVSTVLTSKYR
# Protocol: All ITC experiments were conducted via a MicroCal AutoiTC200 (Malvern Panalytical) at the Korea Basic Science Institute (Ochang, Korea). Binding affinity was measured via the addition of 40 µl of 5 mM KDS12025 (ligand) and 200 µl of 200 μM purified human Hb (protein) (MP Biomedical, 55914) in sodium phosphate buffer (pH 7.2). For each titration experiment, 2 µl of KDS12025 was injected into purified human Hb for 4 s at intervals of 180 s at 25 °C. Overall, 19 injections were performed for each experiment, and the data were analyzed via MicroCal Origin 8.0 software.
# [1] = test system: primary cultured hippocampal astrocytes; test: oROS-G intracellular H2O2 imaging; format: cell-based, mouse; details: for oROS-G intensity: Fig. 6e
# Protocol: Primary hippocampal astrocytes were obtained from postnatal day 0‒2 (P0‒2) C57BL/6 mice as previously described.[73] The hippocampal tissue was dissected free of meninges, minced, and dissociated into a single-cell suspension by trituration. The cells were grown in Dulbecco’s modified Eagle’s medium supplemented with D-glucose (4500 mg/L), L-glutamine, sodium pyruvate (110 mg/L), 10% heat-inactivated horse serum, 10% heat-inactivated fetal bovine serum, and 1000 U/ml penicillin‒streptomycin. The cells were maintained at 37 °C in a humidified atmosphere containing 5% CO2.
# H2O2 specific, highly sensitive, and fast on-and-off kinetics, a genetically encoded oROS-G plasmid kindly provided by Dr. Andre Berndt. oROS-G was cloned under the GFAP104 promoter and delivered into primary cultured hippocampal astrocytes via the NeoN^TM transfection system (Invitrogen). The cells were treated with various concentrations of Aβ (1 to 10 μM) or 6-OHDA (Tocris, 2547; 10 to 50 μM) to induce aberrant H2O2. For subsequent experiments, 5 μM Aβ and 30 μM 6-OHDA were selected on the basis of initial dose‒response studies. KDS12025 (10 μM) and sodium pyruvate (1 mM) were applied as indicated in each experiment. For live-cell imaging, astrocytes were maintained in a humidified chamber at 37 °C with 5% […] during imaging to preserve physiological conditions. Changes in the fluorescence of oROS-G were recorded via an A1 Nikon confocal microscope equipped with a temperature- and humidity-controlled stage. Images were captured every 20 min for up to 40 h (20for the 6-OHDA experiments) via the NIS-Elements software (Nikon, Japan) for time-lapse imaging. The excitation and emission wavelengths for oROS-G fluorescence were set to 485 nm and 538 nm, respectively. Endpoint fluorescence measurements were also collected for KDS12025 dose-dependent experiments. To analyze the fluorescence intensity, individual regions of interest (ROIs) were manually selected for each astrocyte via NIS-Elements software (Nikon, Japan). The fluorescence intensity changes were normalized to the baseline values (ΔF/F0) to quantify the H2O2 dynamics. To determine the EC50 of KDS12025, endpoint fluorescence intensity data from oROS-G experiments were normalized to those of the Aβ+vehicle control group. The normalized data were analyzed via GraphPad Prism software to fit a four-parameter logistic curve, yielding the EC50 value for the H2O2-decomposing activity of KDS12025.
# PDGFRA = target: T2, PDGFRA (Homo sapiens, UniProt P16234); test: KINOMEscan; format: binding; details: 10000 nM; read-out: Percent Control
# T2 construct: purchased DiscoverX KINOMEscan scanEDGE; Eurofins Cerep SafetyScreen87
# T2 sequence (P16234 24-1089): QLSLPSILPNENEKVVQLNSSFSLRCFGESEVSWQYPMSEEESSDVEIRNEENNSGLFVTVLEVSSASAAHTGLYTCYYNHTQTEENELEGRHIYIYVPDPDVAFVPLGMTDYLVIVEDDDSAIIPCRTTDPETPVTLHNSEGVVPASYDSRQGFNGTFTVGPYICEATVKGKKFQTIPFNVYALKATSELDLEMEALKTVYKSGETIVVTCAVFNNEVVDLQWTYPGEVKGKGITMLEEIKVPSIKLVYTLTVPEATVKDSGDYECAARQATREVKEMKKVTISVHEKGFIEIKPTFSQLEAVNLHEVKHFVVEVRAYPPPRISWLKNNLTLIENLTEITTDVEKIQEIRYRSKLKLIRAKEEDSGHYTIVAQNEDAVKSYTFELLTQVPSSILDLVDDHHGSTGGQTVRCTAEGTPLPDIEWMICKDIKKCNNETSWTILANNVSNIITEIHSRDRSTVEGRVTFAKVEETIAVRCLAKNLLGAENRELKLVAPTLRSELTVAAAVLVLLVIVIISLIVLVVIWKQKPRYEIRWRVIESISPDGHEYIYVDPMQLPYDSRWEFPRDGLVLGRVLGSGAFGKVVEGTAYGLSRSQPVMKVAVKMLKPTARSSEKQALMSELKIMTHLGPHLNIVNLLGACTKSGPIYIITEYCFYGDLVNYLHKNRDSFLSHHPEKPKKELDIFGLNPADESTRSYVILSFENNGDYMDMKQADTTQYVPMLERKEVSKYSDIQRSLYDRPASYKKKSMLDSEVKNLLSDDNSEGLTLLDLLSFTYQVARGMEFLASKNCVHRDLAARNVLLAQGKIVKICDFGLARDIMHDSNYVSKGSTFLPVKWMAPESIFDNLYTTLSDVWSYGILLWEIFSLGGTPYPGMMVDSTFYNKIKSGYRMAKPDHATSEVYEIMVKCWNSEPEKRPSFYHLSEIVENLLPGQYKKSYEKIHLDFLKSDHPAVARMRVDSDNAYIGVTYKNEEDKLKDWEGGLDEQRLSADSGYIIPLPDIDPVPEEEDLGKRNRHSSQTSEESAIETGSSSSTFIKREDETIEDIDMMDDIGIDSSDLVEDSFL
# Protocol: as §1
# IKK-beta = target: T3, IKK-beta (Homo sapiens, UniProt O14920); test: KINOMEscan; format: binding; details: 10000 nM; read-out: Percent Control
# T3 construct: purchased DiscoverX KINOMEscan scanEDGE; Eurofins Cerep SafetyScreen87
# T3 sequence (O14920 whole entry): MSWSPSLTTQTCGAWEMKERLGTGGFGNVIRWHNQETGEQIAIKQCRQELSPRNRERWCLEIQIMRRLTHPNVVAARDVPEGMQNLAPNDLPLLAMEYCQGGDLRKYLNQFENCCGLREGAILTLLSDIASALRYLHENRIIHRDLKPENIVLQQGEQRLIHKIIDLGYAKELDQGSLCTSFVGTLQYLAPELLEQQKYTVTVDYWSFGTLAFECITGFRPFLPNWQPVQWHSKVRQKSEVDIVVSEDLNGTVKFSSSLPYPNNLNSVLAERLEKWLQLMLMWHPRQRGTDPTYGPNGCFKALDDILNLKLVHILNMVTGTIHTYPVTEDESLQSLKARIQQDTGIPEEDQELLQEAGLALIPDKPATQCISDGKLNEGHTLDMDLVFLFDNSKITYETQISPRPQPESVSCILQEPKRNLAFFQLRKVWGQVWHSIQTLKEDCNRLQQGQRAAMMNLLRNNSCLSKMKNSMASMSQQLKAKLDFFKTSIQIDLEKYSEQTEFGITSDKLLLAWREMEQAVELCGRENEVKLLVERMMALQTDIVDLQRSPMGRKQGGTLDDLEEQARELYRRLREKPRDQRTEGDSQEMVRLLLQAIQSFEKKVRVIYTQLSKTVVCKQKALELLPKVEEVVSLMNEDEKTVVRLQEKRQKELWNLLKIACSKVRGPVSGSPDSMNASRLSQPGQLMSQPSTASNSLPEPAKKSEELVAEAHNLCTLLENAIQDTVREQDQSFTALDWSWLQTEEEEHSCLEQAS
# Protocol: as §1
# EGFR(L858R) = target: T4, EGFR(L858R) (Homo sapiens, UniProt P00533, L858R); test: KINOMEscan; format: binding; details: 10000 nM; read-out: Percent Control
# T4 construct: purchased DiscoverX KINOMEscan scanEDGE; Eurofins Cerep SafetyScreen87
# T4 sequence (P00533 25-1210 L858R): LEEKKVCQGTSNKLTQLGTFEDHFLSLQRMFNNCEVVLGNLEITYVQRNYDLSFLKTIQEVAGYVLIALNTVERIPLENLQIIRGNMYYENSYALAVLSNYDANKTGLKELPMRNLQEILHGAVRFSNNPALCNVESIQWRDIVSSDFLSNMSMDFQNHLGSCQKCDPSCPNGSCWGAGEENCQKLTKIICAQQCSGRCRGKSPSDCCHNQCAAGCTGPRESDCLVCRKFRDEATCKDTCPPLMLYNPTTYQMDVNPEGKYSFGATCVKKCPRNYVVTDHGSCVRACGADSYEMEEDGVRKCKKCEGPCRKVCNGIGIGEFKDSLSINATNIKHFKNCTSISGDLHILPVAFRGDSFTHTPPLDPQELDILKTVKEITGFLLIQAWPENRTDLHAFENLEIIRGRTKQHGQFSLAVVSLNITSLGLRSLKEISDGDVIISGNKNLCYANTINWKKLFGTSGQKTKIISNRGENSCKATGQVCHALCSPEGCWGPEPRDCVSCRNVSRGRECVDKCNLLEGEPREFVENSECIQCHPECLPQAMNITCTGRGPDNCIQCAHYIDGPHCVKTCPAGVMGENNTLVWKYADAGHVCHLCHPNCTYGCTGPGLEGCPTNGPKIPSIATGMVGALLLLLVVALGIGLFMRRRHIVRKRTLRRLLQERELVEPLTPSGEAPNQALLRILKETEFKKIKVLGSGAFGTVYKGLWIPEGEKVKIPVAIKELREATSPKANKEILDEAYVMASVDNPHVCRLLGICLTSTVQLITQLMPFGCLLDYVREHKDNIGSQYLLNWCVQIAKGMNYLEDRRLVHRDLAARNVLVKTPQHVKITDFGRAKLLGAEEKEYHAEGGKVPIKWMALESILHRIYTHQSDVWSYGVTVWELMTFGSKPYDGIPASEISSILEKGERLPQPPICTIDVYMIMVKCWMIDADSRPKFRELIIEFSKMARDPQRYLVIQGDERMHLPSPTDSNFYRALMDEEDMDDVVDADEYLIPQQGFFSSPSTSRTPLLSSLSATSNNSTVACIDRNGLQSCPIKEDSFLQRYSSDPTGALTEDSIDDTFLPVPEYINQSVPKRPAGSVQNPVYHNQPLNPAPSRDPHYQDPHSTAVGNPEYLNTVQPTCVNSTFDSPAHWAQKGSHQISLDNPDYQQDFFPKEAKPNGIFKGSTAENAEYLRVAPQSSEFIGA
# Protocol: as §1
# CSNK1D = target: T5, CSNK1D (Homo sapiens, UniProt P48730); test: KINOMEscan; format: binding; details: 10000 nM; read-out: Percent Control
# T5 construct: purchased DiscoverX KINOMEscan scanEDGE; Eurofins Cerep SafetyScreen87
# T5 sequence (P48730 whole entry): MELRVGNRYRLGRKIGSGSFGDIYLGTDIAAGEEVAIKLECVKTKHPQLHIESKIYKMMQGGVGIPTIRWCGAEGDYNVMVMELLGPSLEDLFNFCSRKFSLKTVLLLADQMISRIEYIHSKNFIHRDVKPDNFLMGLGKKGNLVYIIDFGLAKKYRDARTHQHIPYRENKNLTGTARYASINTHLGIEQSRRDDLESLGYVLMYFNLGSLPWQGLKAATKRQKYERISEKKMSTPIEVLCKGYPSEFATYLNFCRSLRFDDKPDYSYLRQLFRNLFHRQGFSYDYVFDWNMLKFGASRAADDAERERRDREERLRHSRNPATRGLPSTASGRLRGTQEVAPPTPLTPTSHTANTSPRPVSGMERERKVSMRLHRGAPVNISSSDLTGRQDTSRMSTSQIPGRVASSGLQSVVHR
# Protocol: as §1
# CIA DBA1 mice = test: CIA mouse model of rheumatoid arthritis; format: in vivo; parameters: matrix, toluidine blue (Fig. S20m) / surface regularity, toluidine blue (Fig. S20n) / CIA score at day 42 (Fig. S20c) / area under the curve (AUC) of symptom severity (Fig. S20e): scale not given here; cartilage thickness, toluidine blue (Fig. S20o): unit not given here
# Protocol: CIA was induced in DBA1 mice by intradermal injection of type II collagen emulsified in Complete Freund's Adjuvant (CFA) on day 0, followed by a booster injection of type II collagen in Incomplete Freund's Adjuvant (IFA) on day 21. Starting from day 23, mice were administered KDS12025 in drinking ad libitum at doses of 0, 0.1, or 1 mg/kg/day until day 42. To assess joint inflammation and cartilage thickness in CIA mice, joint samples were collected and fixed in 10% formalin. The samples were then decalcified, embedded in paraffin, and sectioned. For histological evaluation, sections were stained with H&E to assess inflammation and with Toluidine Blue to evaluate cartilage thickness. The stained sections were examined under a light microscope, and images were captured for quantitative analysis of inflammatory cell infiltration and cartilage integrity.
compound,measurement,setting,value
"CNc1ccc(NCCc2ccccc2OC)cc1.Cl [KDS12025, N^1-(2-methoxyphenethyl)-N^4-methylbenzene-1,4-diamine hydrochloride salt]","Number of Hits, S(1)",97 kinases,0
same,"Number of Hits, S(10)",97 kinases,0
same,"Number of Hits, S(35)",97 kinases,0
same,ΔG (ITC),purified human Hb,-7.53 kcal/mol
same,ΔH (ITC),purified human Hb,-580 kcal/mol
same,oROS-G H2O2 level,"[1]; 6-OHDA 30 μM + KDS12025, Fig. 3k",123.4±9.7
same,"oROS-G H2O2 level, 40-h imaging","[1]; Aβ 5 μM + KDS12025 10 μM, Fig. 3h",111.8±4.968
same,oROS-G intensity,"[1]; Hbβ-shRNA, Aβ 5 μM + 0.1μM",199.3
same,oROS-G intensity,"[1]; Hbβ-shRNA, Aβ 5 μM + 1μM",204.7
same,oROS-G intensity,"[1]; Hbβ-shRNA, Aβ 5 μM + 10μM",182.4
same,EC50,"[1]; Mus musculus, Astrocyte, Aβ 5 µM-treated astrocytes, oROS-G endpoint, read-out: EC50, reduction of Aβ-induced H2O2",500 nM
same,oROS-G intensity,"[1]; Sc-shRNA, Aβ 5 μM + 0.1μM",100.5±13.5
same,oROS-G intensity,"[1]; Sc-shRNA, Aβ 5 μM + 1μM",112.3±24.1
same,oROS-G intensity,"[1]; Sc-shRNA, Aβ 5 μM + 10μM",83.4±13.5
same,"oROS-G H2O2 level, 40-h imaging","[1]; putrescine 180 μM + KDS12025 10 μM, Fig. 3i",96.12±6.634
same,remaining binding at 10 µM,PDGFRA,85%
same,remaining binding at 10 µM,IKK-beta,100%
same,remaining binding at 10 µM,EGFR(L858R),45%
same,remaining binding at 10 µM,CSNK1D,88%
same,CIA score at day 42 (Fig. S20c),CIA DBA1 mice; 0.1 MPK,9.5±1.133
same,area under the curve (AUC) of symptom severity (Fig. S20e),CIA DBA1 mice; 0.1 MPK,54.17±15.02
same,body weight difference (Fig. S20p),CIA DBA1 mice; 0.1 MPK,93±0.5%
same,"bone erosion, H&E (Fig. S20k)",CIA DBA1 mice; 0.1 MPK,0.852±0.3905
same,"cartilage destruction, H&E (Fig. S20i)",CIA DBA1 mice; 0.1 MPK,1.5±0.2949
same,"cartilage thickness, toluidine blue (Fig. S20o)",CIA DBA1 mice; 0.1 MPK,0.85±0.2018
same,"matrix, toluidine blue (Fig. S20m)",CIA DBA1 mice; 0.1 MPK,1.504±0.3303
same,"pannus formation, H&E (Fig. S20j)",CIA DBA1 mice; 0.1 MPK,0.9±0.3929
same,paw volume (Fig. S20f),CIA DBA1 mice; 0.1 MPK,0.1383 ± 0.0074 mL
same,"surface regularity, toluidine blue (Fig. S20n)",CIA DBA1 mice; 0.1 MPK,1.352±0.3083
same,"synovial hyperplasia, H&E (Fig. S20h)",CIA DBA1 mice; 0.1 MPK,1.338±0.2985
same,CIA score at day 42 (Fig. S20c),CIA DBA1 mice; 1 MPK,6.583±0.7002
same,area under the curve (AUC) of symptom severity (Fig. S20e),CIA DBA1 mice; 1 MPK,25.0±9.129
same,body weight difference (Fig. S20p),CIA DBA1 mice; 1 MPK,100.7±0.4%
same,"bone erosion, H&E (Fig. S20k)",CIA DBA1 mice; 1 MPK,0.338±0.2928
same,"cartilage destruction, H&E (Fig. S20i)",CIA DBA1 mice; 1 MPK,0.966±0.2183
same,"cartilage thickness, toluidine blue (Fig. S20o)",CIA DBA1 mice; 1 MPK,0.652±0.1825
same,"matrix, toluidine blue (Fig. S20m)",CIA DBA1 mice; 1 MPK,0.988±0.2547
same,"pannus formation, H&E (Fig. S20j)",CIA DBA1 mice; 1 MPK,0.338±0.2928
same,paw volume (Fig. S20f),CIA DBA1 mice; 1 MPK,0.1183 ± 0.0047 mL
same,"surface regularity, toluidine blue (Fig. S20n)",CIA DBA1 mice; 1 MPK,0.95±0.2009
same,"synovial hyperplasia, H&E (Fig. S20h)",CIA DBA1 mice; 1 MPK,0.7620±0.3263
